The text below walks through data of doi:10.1101/2024.01.31.578122v1 (biorxiv, 2024).

In assay [1] the target is TRIM21 PRYSPRY (PRYSPRY domain of TRIM21) (Homo sapiens, UniProt P19474). Description: microscale thermophoresis, RED-NHS labelled protein. Type of assay: binding.
For assay [2], the target named is TRIM21 PRYSPRY (PRYSPRY domain of TRIM21) (Homo sapiens, UniProt P19474, D355A). The assay is described as follows: isothermal titration calorimetry. Type of assay: binding.
TRIM21 PRYSPRY (PRYSPRY domain of TRIM21) (Homo sapiens, UniProt P19474, D355A), sequence (P19474 287-465 D355A): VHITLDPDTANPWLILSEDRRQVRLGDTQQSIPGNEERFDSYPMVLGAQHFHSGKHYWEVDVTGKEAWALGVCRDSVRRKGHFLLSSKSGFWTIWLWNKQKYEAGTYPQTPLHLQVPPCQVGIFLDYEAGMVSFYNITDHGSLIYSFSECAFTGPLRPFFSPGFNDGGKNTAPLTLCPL

TRIM21 PRYSPRY (PRYSPRY domain of TRIM21) (Homo sapiens, UniProt P19474), sequence (P19474 287-465): as the sequence (P19474 287-465 D355A) above, with A69D counted along it

For `C[C@H](O)c1ccc2c(c1)N(CCCN(C)C)c1ccccc1S2` [(S)-hydroxyl-acepromazine], the results for the dissociation constant Kd in assay [1] and in assay [2] were 237 µM and 17.9 µM, respectively. Take `C[C@@H](O)c1ccc2c(c1)N(CCCN(C)C)c1ccccc1S2` [(R)-ACE-OH]: in assay [2], the affinity, expressed as Kd, was 9.11 µM. As for `CC(=O)c1ccc2c(c1)N(CCCN(C)C)c1ccccc1S2` [acepromazine], the equilibrium dissociation constant (Kd) stood at 44.6 µM in assay [1] and 5.66 µM in assay [2].
